Results on three molecules are retold here after patent US20200032269A1, “GENETICALLY MODIFIED CELL LINES FOR METABOLIC STUDIES” (Hennepin Healthcare Research Institute, priority 2017, published 2020).

Data set [1] relates to HuH-7 CYP3A5 *3/*3 cell line. The experiment in a line: Midazolam and tacrolimus metabolism assay, parental HuH-7 cells. The procedure: (§1) To further characterize the cell lines, metabolism assays were performed to determine the effect of each genetic variant on metabolism. FIG. 11 illustrates a generalized representative assay. In this exemplary assay, a cell line is plated on a collagen I-coated plate (or in a well of a multi-well plate, etc.), layered with an extracellular-matrix-like hydrogel (e.g., […], Corning Life Sciences, Tewksbury, Mass.), induced with a suitable inducer (e.g., rifampin and phenytoin), then treated with the substrate MDZ. The MDZ substrate is converted by the metabolic processes of the cell line to 1-OH MDZ or 4-OH MDZ, which can be measured using, for example high performance liquid chromatography (HPLC). The assay can be altered depending on the substrate, cell line, genetic variant, and any other experimental conditions.
(§2) In this metabolism assay, all three exemplary cell lines and HuH-7 parental cell line were grown to confluency and then layered with […] (Corning Life Sciences, Tewksbury, Mass.). The cells were then induced with rifampicin and phenytoin for three days and treated with substrate Tac overnight. Cell culture media were collected after treatment and assayed for Tac disappearance using liquid chromatography-mass spectrometry.
(§3) HuH-7 and engineered cells were grown to confluence in 12 well BIOCOAT collagen I multi-well plates (Corning, Inc., Corning, N.Y.) for 3-4 weeks in DMEM. Cells were then overlaid with […] matrix (Corning, Inc., Corning, N.Y.) and then induced for four days by adding 100 μM phenytoin (USP) and 10 μM rifampicin to the cell culture, with media changed daily with inducers. On the fourth day, 500 μl of media was added to the cells with 100 μM phenytoin (USP) and 10 μM rifampicin with either equal volumes of methanol, as a negative control, or Midazolam (MDZ; Cerrilliant Corp., Round Rock, Tex.) diluted in methanol so that MDZ final concentration was 5 μM in cell culture media. Cells were incubated overnight, and media was collected and assayed for MDZ, 1-OH MDZ and 4-OH MDZ by high performance liquid chromatography.
(§4) To determine the metabolic function of the engineered cell lines, the cells were treated with MDZ at 1628 ng/mL (5 μM) in cell culture overnight. The following day, the cell culture media was harvested and analyzed by liquid chromatography/mass spectrometry (LC/MS) at the University of Minnesota Department of Experimental and Clinical Pharmacology to quantify the concentrations of MDZ and the metabolites 1-hydroxy-midazolam (1-OH MDZ) and 4-hydroxy-midazolam (4-OH MDZ).
(§5) Likewise, Tac was added to cells and analyzed by LC/MS at the University of Minnesota Department of Experimental and Clinical Pharmacology. […]

For another data set, the target named is CYP3A4 (Homo sapiens, UniProt P08684). The conditions noted are these: FIG. 16 diagram; cited from earlier work.
Chain of CYP3A4 (P08684 whole entry): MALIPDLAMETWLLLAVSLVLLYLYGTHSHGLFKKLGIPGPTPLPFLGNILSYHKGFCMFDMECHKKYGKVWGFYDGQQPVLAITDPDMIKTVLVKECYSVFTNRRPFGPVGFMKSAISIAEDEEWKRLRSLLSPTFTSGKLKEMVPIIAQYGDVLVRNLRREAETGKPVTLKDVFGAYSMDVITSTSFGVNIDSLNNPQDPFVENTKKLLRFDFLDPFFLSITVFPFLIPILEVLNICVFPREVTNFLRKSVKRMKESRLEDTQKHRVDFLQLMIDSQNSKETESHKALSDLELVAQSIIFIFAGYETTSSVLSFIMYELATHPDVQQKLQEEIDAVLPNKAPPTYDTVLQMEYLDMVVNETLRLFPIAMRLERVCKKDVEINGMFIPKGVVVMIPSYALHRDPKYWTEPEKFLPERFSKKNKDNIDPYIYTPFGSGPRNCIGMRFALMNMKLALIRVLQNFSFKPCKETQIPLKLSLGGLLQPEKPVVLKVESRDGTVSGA
A further data set concerns the target CYP3A5 (Homo sapiens, UniProt P20815). The conditions noted are these: FIG. 16 diagram; cited from earlier work.
The subject of data set [2] is CYP3A5 *1/*3 sd cell line. Kind of data set: Midazolam and tacrolimus metabolism assay, CYP3A5 *1/*3 sd cells. The procedure:
as §1, §2, §3, §4, §5

Data set [3] has as its system CYP3A5 *1/*1 dd cell line. The experiment in a line: Midazolam and tacrolimus metabolism assay, CYP3A5 *1/*1 dd cells. The procedure:
as §1, §2
HuH-7 and engineered cells were grown to confluence in 12 well BIOCOAT collagen I multi-well plates (Corning, Inc., Corning, N.Y.) for 3-4 weeks in DMEM. […]
as §4, §5

Data set [4] deals with CYP3A5 *1/*3 pm cell line. The experiment in a line: Midazolam and tacrolimus metabolism assay, CYP3A5 *1/*3 pm cells. The procedure: as §1, §2, §3, §4, §5
For data set [5] the following is noted: kidney transplant patients, cited from earlier work.

Like-named read-outs stand apart in the source and are kept apart here.

Chain of CYP3A5 (P20815 whole entry): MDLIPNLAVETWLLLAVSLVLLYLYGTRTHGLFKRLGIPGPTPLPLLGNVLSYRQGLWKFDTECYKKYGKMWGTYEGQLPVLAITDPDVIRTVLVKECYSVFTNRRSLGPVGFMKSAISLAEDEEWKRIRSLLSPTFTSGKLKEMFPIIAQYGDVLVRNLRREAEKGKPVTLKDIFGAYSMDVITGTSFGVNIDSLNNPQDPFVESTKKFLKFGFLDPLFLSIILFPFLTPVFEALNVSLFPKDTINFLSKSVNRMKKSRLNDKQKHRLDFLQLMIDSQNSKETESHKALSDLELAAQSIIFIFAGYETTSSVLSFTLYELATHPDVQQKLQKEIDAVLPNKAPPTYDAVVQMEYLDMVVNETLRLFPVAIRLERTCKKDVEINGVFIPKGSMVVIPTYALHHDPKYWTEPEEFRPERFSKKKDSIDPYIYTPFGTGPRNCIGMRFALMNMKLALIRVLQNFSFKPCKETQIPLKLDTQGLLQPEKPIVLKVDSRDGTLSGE

Take `Cc1ccc(-c2c(-c3nn(C)c4ncnc(N5CC[C@H](N6CCCCC6)C5)c34)cnn2C)cc1` [CYP3CIDE]: the “inhibition of 1-OH MDZ production” value in data set [1] (50 μM CYP3CIDE, HuH-7 cells, MDZ substrate, FIG. 19) is “nearly completely inhibited”. In addition, the “inhibition of 4-OH MDZ production” value in data set [1] (50 μM CYP3CIDE, HuH-7 cells, MDZ substrate, FIG. 20) is “inhibited”. At CYP3A4, the “inhibitory function on CYP3A4” value is “strong inhibitor”. Moreover, the “inhibitory function on CYP3A5” value on CYP3A5 was “mild inhibitory effect”.
For the molecule `Cc1ncc2n1-c1ccc(Cl)cc1C(c1ccccc1F)=NC2` [Midazolam, midazolam], the “Midazolam (ng/mL) No CYP3CIDE” value is reported as 1458 ± 62 ng/mL in data set [1] (HuH-7 CYP3A5 *3/*3, start 5 μM (approximately 1629 ng/ml) MDZ, overnight, no CYP3CIDE, mean ± SD of six); 971 ± 110 ng/mL in data set [2] (CYP3A5 *1/*3 sd, start 5 μM MDZ, overnight, no CYP3CIDE, mean ± SD of six); 724 ± 200 ng/mL in data set [3] (start 5 μM MDZ, overnight, no CYP3CIDE, mean ± SD of six); 1130 ± 45 ng/mL in data set [4] (CYP3A5 *1/*3 pm, start 5 μM MDZ, overnight, no CYP3CIDE, mean ± SD of six). In addition, the “Midazolam (ng/mL) With CYP3CIDE” value in data set [1] (HuH-7 CYP3A5 *3/*3, start 5 μM (approximately 1629 ng/ml) MDZ, overnight, with 50 μM CYP3CIDE, mean ± SD of six) is on record as 1534 ± 32 ng/mL; in data set [2] (CYP3A5 *1/*3 sd, start 5 μM MDZ, overnight, with 50 μM CYP3CIDE, mean ± SD of six), 1241 ± 64 ng/mL; in data set [3] (start 5 μM MDZ, overnight, with 50 μM CYP3CIDE, mean ± SD of six), 1189 ± 90 ng/mL; in data set [4] (CYP3A5 *1/*3 pm, start 5 μM MDZ, overnight, with 50 μM CYP3CIDE, mean ± SD of six) it was 1224 ± 18 ng/mL. The MDZ disappearance entry is reported as “more efficiently than the parental HuH-7 cell line” in data set [2] (CYP3A5 *1/*3 sd, FIG. 13, five biological replicates); “the most MDZ disappearance” in data set [3] (FIG. 13, five biological replicates); “more efficiently than the parental HuH-7 cell line” in data set [4] (CYP3A5 *1/*3 pm, FIG. 13, five biological replicates).
As for `C=CC[C@@H]1/C=C(\C)C[C@H](C)C[C@H](OC)[C@H]2O[C@@](O)(C(=O)C(=O)N3CCCC[C@H]3C(=O)O[C@H](/C(C)=C/[C@@H]3CC[C@@H](O)[C@H](OC)C3)[C@H](C)[C@@H](O)CC1=O)[C@H](C)C[C@@H]2OC` [Tac, tacrolimus], the Tac disappearance entry in data set [2] (human, 13 ng/mL) is on record as “more efficiently than the parental HuH-7 cell line”; in data set [4] (human, 13 ng/mL), “more efficiently than the parental HuH-7 cell line”. Moreover, the “reduction in log-transformed dose-normalized troughs” value in data set [5] (one CYP3A5 *1 allele present) is 36%; in data set [5] (two CYP3A5 *1 alleles present), 59%.
